From US12691070B2, “Cationic lipids and preparation method thereof” (RiboX Therapeutics HK Limited, priority 2023, dated 2026)

Columns and labels:
[1] = test system: Alanine Aminotransferase (ALT); assay: Liver enzyme elevation in serum, ALT; assay type: in vivo; details: cirRNA (SEQ ID NO: 1) LNPs, BALB/C mice, intravenous 0.5 MPK
Method: (§1) 6-8 week old, female BALB/C mice were injected with 0.5 mg*kg-1 of RNA LNPs by intravenous injection. At 2 and 24 hours post injection, animals were bled and sera concentrations of Alanine Aminotransferase (ALT) and Aspartate Aminotransferase (AST) were determined by a blood chemistry analyzer.

[2] = test system: BALB/C mice; assay: In vivo expression, whole-body luminescence (IVIS)
Method: 6-8 week old, female BALB/C mice were injected with 0.05 mg*kg-1 of RNA-LNPs encoding for firefly-luciferase by intravenous injection. At 6 hours post injection, animals were intraperitoneally injected with 15 mg/ml of Luciferin substrate and whole-body luminescence was determined by a bioluminescent in vivo imaging system (IVIS).

[3] = test system: Hep G2 cells; assay: In vitro toxicity (CellTiter-Glo cell viability), Hep G2; assay type: cell-based;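 note: percent of untreated cells luminescence signal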
Summary of the method: (§2)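 Toxicity of RNA-LNPs (1 μg/mL) is reported as cell viability, calculated from CellTiter-Glo luminescence measured at 72 hours after transfection.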

[4] = test system: Aspartate Aminotransferase (AST); assay: Liver enzyme elevation in serum, AST; assay type: in vivo; details: cirRNA (SEQ ID NO: 1) LNPs, BALB/C mice, intravenous 0.5 MPK
Method: as §1

[5] = RNA encapsulation efficacy by Quant-IT Ribogreen kit; assay type: physicochemical; details: for Encapsulation Efficiency %: LNP with cirRNA (SEQ ID NO: 1); for Encapsulation Efficiency: LNP with mRNA (SEQ ID NO: 2)
Summary of the method: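 Ribogreen fluorescence with and without Triton X-100 gave encapsulation as 100% − (intact/lysed) signal; DLS size, PDI and zeta potential measured on a Zetasizer. Particles: 50:10:38.5:1.5 lipid mix, luciferase circRNA or mRNA, lipid:nucleotide 15 or 6, microfluidic assembly at pH 4.5, PBS-dialyzed.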

[6] = test system: MCP-I; assay: MCP-I cytokine elevation in serum; assay type: in vivo; details: cirRNA (SEQ ID NO: 1) LNPs, mice
Method: 6-8 week old, female BALB/C mice were injected with 0.5 mg*kg-1 of RNA LNPs by intravenous injection. At 2 and 24 hours post injection, animals were bled and sera concentrations of MCP-I were determined by an immunoassay (Luminex).

[7] = test system: RAW 264.7 cells; assay: In vitro expression of firefly-luciferase, RAW 264.7; assay type: cell-based
Summary of the method: (§3)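 Luminescence from cell lysates reports expression: luciferase activity was measured 72 h after transfection with 100 ng/mL RNA-LNPs encoding firefly luciferase.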

[8] = test system: BALB/C mice; assay: Local tolerance determination by footpad injection; assay type: in vivo; details: cirRNA (SEQ ID NO: 1) LNP, 0.175 mg*kg-1 subcutaneous into the footpad, 24 hours post minus prior
Method: 6-8 week old, female BALB/C mice were injected with 0.175 mg*kg-1 RNA LNPs by subcutaneous injection into the footpad. Prior to, and 24 hours post injections, injected footpad thickness was determined by a caliper.

[9] = LNP size and polydispersity index (PDI) by dynamic light scattering; assay type: physicochemical; details: for Size: in nm (unit assumed)
Summary of the method: (§4)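 Dynamic light scattering and zeta potential measurements were run on PBS-dialyzed LNPs, which had been formed by microfluidic mixing at 12 ml/min with final lipid at 1.5 mM to 6 mM. RNA content and percent encapsulation were determined by Ribogreen with and without Triton X-100.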

[10] = LNP zeta potential (Zetasizer); assay type: physicochemical
Summary of the method: as §4

[11] = test system: RAW 264.7 cells; assay: In vitro toxicity (CellTiter-Glo cell viability), RAW 264.7; assay type: cell-based;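 note: percent of untreated cells luminescence signal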
Summary of the method: as §2

[12] = test system: Hep G2 cells; assay: In vitro expression of firefly-luciferase, Hep G2; assay type: cell-based
Summary of the method: as §3

[13] = cirRNA (SEQ ID NO: 1) LNPs, BALB/C mice
[14] = mRNA (SEQ ID NO: 2) LNP, 0.05 mg*kg-1 intravenous, 6 hours post injection
[15] = cirRNA (SEQ ID NO: 1) LNPs, Hep G2 cells
[16] = mRNA (SEQ ID NO: 2) LNP, 1 μg/mL, 72 hours post transfection
[17] = cirRNA (SEQ ID NO: 1) LNPs, firefly-luciferase luminescence, RAW 264.7 cells
[18] = mRNA (SEQ ID NO: 2) LNP, 100 ng/mL, 72 hours post transfection, luciferase activity
[19] = cirRNA (SEQ ID NO: 1) LNPs, RAW 264.7 cells
[20] = cirRNA (SEQ ID NO: 1) LNPs, firefly-luciferase luminescence, Hep G2 cells

Row | Compound | ALT in Sera (IU/L) 2 hours After 0.5 MPK Injection [1] | ALT in Sera (IU/L) 24 hours After 0.5 MPK Injection [1] | In vivo Expression (Whole Body) [2, 13] | In vivo Expression (Whole Body) [2, 14] | In vitro Viability HepG2 [3, 15] | In vitro Viability HepG2 [3, 16] | AST in Sera (IU/L) 2 hours After 0.5 MPK Injection [4] | AST in Sera (IU/L) 24 hours After 0.5 MPK Injection [4] | Encapsulation Efficiency % [5] | Encapsulation Efficiency [5] | MCP-I in Sera 2 hours After 0.5 MPK Injection [6] | MCP-I in Sera 24 hours After 0.5 MPK Injection [6] | In vitro Expression RAW [7, 17] | In vitro Expression RAW [7, 18] | Footpad Thickness (24 h−0 h, mm) [8] | PDI ([9]; LNP with cirRNA (SEQ ID NO: 1)) | Size ([9]; LNP with cirRNA (SEQ ID NO: 1)) | PDI ([9]; LNP with mRNA (SEQ ID NO: 2)) | Size ([9]; LNP with mRNA (SEQ ID NO: 2)) | Zeta (mV) ([10]; LNP with cirRNA (SEQ ID NO: 1)) | also measured
1 | CCCCC/C=C\C/C=C\CCCCCCCCN(CCCCCC(=O)OCC(CCCCCCCC)CCCCCCCCCC)CCOC(=O)NCCN(C)C (stereo not drawn) [Lipid 75, 2-octyldodecyl 2-methyl-10-((9Z,12Z)-octadeca-9,12-dien-1-yl)-6-oxo-7-oxa-2,5,10-triazahexadecan-16-oate] | 111.37 IU/L | 48.97 IU/L | 9.85E+08 | 4.22E+08 | 85% | 95% | 279.87 IU/L | 94.83 IU/L | 97% | 89% | 8335.00 pg/mL | 93.14 pg/mL | 2.08E+06 | 2.18E+06 | 0.85 mm | 0.13 | 91.13 | 0.1903 | 70.28 | 1.59 mV | Zeta (mV) ([10]; LNP with mRNA (SEQ ID NO: 2)): 13.66 mV; In vitro Viability RAW [11, 19]: 75%; In vitro Viability RAW [11, 16]: 96%; In vitro Expression HepG2 [12, 20]: 1.94E+06; In vitro Expression HepG2 [12, 18]: 9.23E+06
2 | CCCCCCCCC(CCCCCCCC)OC(=O)CCCCCCCN(CCCCCCCCOC(=O)C(CCCCCC)CCCCCCCC)CCCOC(=O)NCCN1CCCCCC1 (stereo not drawn) [Lipid 354] | 97.67 IU/L | 192.50 IU/L | 6.08E+08 | 7.55E+08 | 119% | 104% | 287.33 IU/L | 411.00 IU/L | 96% | 71.30% | 5469.33 pg/mL | 1348.89 pg/mL | 4.53E+05 | 1.10E+06 | 0.80 mm | 0.1505 | 98.03 | 0.2144 | 128.6 | −2.263 mV | Zeta (mV) ([10]; LNP with mRNA (SEQ ID NO: 2)): −0.3781 mV; In vitro Viability RAW [11, 19]: 45%; In vitro Viability RAW [11, 16]: 65%; In vitro Expression HepG2 [12, 20]: 1.63E+06; In vitro Expression HepG2 [12, 18]: 7.47E+06
3 | CCCCCCCCC(CCCCCCCC)OC(=O)CCCCCCCN(CCCCCCCCOC(=O)C(CCCCCC)CCCCCCCC)CCOC(=O)NCCN1CCCC1 (stereo not drawn) [Lipid 148, 8-((8-(heptadecan-9-yloxy)-8-oxooctyl)(2-(((2-(pyrrolidin-1-yl)ethyl)carbamoyl)oxy)ethyl)amino)octyl 2-hexyldecanoate] | 53.60 IU/L | 59.93 IU/L | 5.07E+08 | 1.69E+09 | 47% | 128% | 136.17 IU/L | 108.13 IU/L | 95% | 93.50% | 6709.61 pg/mL | 69.59 pg/mL | 2.40E+05 | 8.69E+05 | 0.23 mm | 0.03 | 93.46 | 0.07065 | 122.1 | −2.35 mV | Zeta (mV) ([10]; LNP with mRNA (SEQ ID NO: 2)): 3.769 mV; In vitro Viability RAW [11, 19]: 21%; In vitro Viability RAW [11, 16]: 102%; In vitro Expression HepG2 [12, 20]: 2.35E+06; In vitro Expression HepG2 [12, 18]: 6.39E+02
